Measurements: patent publication US7148204B2, “Antisense modulation of bcl-x expression” (Isis Pharmaceuticala, Inc., priority 1998, dated 2006)

Key:
bcl-x = bcl-x protein in SEM-K2 cells by flow cytometry; assay type: cell-based, human; conditions: 10 μM without cationic lipid, 48 hours after initial treatment
Protocol: SEM-K2 is a human cell line derived from a patient suffering from a t(4;11) acute lymphoblastic leukemia. Pocock, C. F. E. et al., Br. J. Haematol. (1995), 90(4), 855–67. SEM-K2 cells in exponential phase of growth were maintained in […] medium (Life Technologies, Inc., Gaithersburg, Md.) supplemented with 10% fetal bovine serum, 2 mM glutamine and penicillin/streptomycin, at 37°C. in 5%CO2/95% air. Cells were transferred in 1 mL volumes at approximately 1–5×10^6 cells/ml to 24-well plates. After one hour, 10 μM of ISIS 15999 or scrambled control 15691 ([…]; SEQ ID No. 41) was added to wells, without cationic lipid. At 24 hours and 48 hours repeat doses of 5 μM oligonucleotide were added. […]
For Western blot and flow cytometric protein analysis, cells were washed once in phosphate-buffered saline and pelleted by centrifugation at 1200 rpm for 5 minutes, and resuspended in cell lysis buffer (5M NaCl, 0.1 M HEPES, 500 mM sucrose, 0.5M EDTA, 100 mM spermine, 1 mg/ml aprotinin, 10% Triton X-100) for 15 minutes on ice. Total protein was quantified spectrophotometrically (BioRad) and 100 μg lysate was loaded onto 15% polyacrylamide gels and run at 200V for 45 minutes. […] Cells were analyzed using a FACScalibur™ running Cellquest software (Becton Dickinson, Franklin Lakes, N.J.). […] Fluorescence detector 1 was used with logarithmic amplification for detection of FITC fluorescence. […]

CEM-C7 cells = assay: Viable cell counts of CEM cells (propidium iodide exclusion, flow cytometry); assay type: cell-based, human; conditions: for viability by propidium iodide exclusion: 20 μM electroporation
Protocol: CEM-C7 cells (Norman et al., 1978), a glucocortocoid sensitive clone of the human T-lymphoblastic cell line CEM, were cultured between 5×10^4 to 10^6 cells/ml in RPMI 1640 medium containing 10% heat-inactivated fetal bovine serum (FBS), streptomycin, penicillin G, 15 mM HEPES, 2 mM sodium pyruvate, at 37° C. in a humid, 5% CO2 incubator. Viable cell counts were performed by propidium iodide staining and flow cytometry.
CEM-C7 cells were electroporated with the indicated concentrations of oligonucleotides at 150 volts, 1,700 microFaraday (μF), and a resistance setting of 5 with a BTX electroporation apparatus (Genetronics, San Diego, Calif.) in 2-mm gap cuvettes containing 5×10^6 cells in 200 μl RPMI plus 20% FBS on ice. Cells were left on ice for 10 minutes, then plated in 5 ml complete media.

bcl-2 protein = assay: Immunoblot of bcl-2 protein in CEM cells; assay type: cell-based, human; conditions: even at the highest concentration
Protocol: Postnuclear detergent lysates were prepared as described by Reed et al. (Cancer Res., 1991, 51, 6529–6538), and the protein concentration was determined using a Bradford method protein assay kit (Bio-Rad, Hercules, Calif.). Protein (20 μg) was loaded in each lane, followed by electrophoresis on a 12% sodium dodecyl sulfate-polyacrylamide gel, followed by immunoblotting (Winston et al., 1993). The primary antibody was a 0.4 μg/ml dilution of the mouse monoclonal anti-human bcl-2 (clone 124, Dako, Carpinteria, Calif.), a 4.0 μg/ml dilution of the rabbit polyclonal anti-human bcl-xs/l (Dako), or a 0.3 μg/ml dilution of rabbit polyclonal anti-human Bax (N-20, Santa Cruz Biotechnology, Santa Cruz, Calif.). For development and STORM fluorescent imaging, the secondary antibody was peroxidase-conjugated sheep anti-mouse or donkey anti-rabbit (Amersham, Little Chalfort, UK). Chemiluminescence imaging and quantification were preformed using the STORM instrument and ImageQuant software (Molecular Dynamics, Sunnyvale, Calif.).

human bcl-x mRNA = assay: Northern blot analysis of bcl-x mRNA levels in A549 cells; assay type: cell-based
Protocol: Eighteen hours after antisense treatment, cell monolayers were washed twice with cold PBS and lysed in 1 mL RNAZOL™ (TEL-TEST “B” Inc., Friendswood, Tex.). Total RNA was prepared following manufacturer's recommended protocols. Twenty micrograms of total RNA was fractionated by electrophoresis through 1.2% agarose gels containing 1.1% formaldehyde using a MOPS buffer system (AMRESCO, Inc. Solon, Ohio). RNA was transferred from the gel to HYBOND™-N+ nylon membranes (Amersham Pharmacia Biotech, Piscataway, N.J.) by overnight capillary transfer using a Northern/Southern Transfer buffer system (TEL-TEST “B” Inc., Friendswood, Tex.). RNA transfer was confirmed by UV visualization. Membranes were fixed by UV cross-linking using a STRATALINKER™ UV Crosslinker 2400 (Stratagene, Inc, La Jolla, Calif.).
Membranes were probed using QUICKHYB™ hybridization solution (Stratagene, La Jolla, Calif.) using manufacturer's recommendations for stringent conditions with an 822-base pair bcl-x specific probe prepared by PCR from bases 33–855 of human bcl-xl sequence (Boise et al., 1993, Cell 74:597–608; GenBank accession no. L20121). To normalize for variations in loading and transfer efficiency membranes were stripped and probed for glyceraldehyde-3-phosphate dehydrogenase (GAPDH) RNA (Clontech, Palo Alto, Calif.). Hybridized membranes were visualized and quantitated using a PHOSPHORIMAGER™ and IMAGEQUANT™ Software V3.3 (Molecular Dynamics, Sunnyvale, Calif.). Data was normalized to GAPDH levels in untreated controls.
Oligonucleotides were tested by Northern blot analysis as described in Example 14. Oligonucleotides were tested in A549 cells at a concentration of 400 nM. The results are Table 2:
Oligonucleotides were tested by Northern blot analysis as described in Example 14. Chimeric oligonucleotides were in A549 cells at a concentration of 200 nM. Where present, “N.D.” indicates “not determined”.

Sequence: TCCCGGTTGCTCTGAGACAT (5-10-5 2'-MOE gapmer, phosphorothioate, further chemistry not given here) [ISIS 15999]
- reduction in bcl-x (median fluorescence intensity) (bcl-x): 50%
- viability by propidium iodide exclusion (CEM-C7 cells; CEM cells, 48 hours): 33%
- viability by propidium iodide exclusion (CEM-C7 cells; CEM cells, 72 hours): 46%
- cell count less than control antisense treated cells (CEM-C7 cells; CEM cells, highest concentration, 20 hours after electroporation): 40%
- viability of CEM cells (CEM-C7 cells; twenty hours after electroporation): dose dependent decrease
- bcl-2 protein levels (bcl-2 protein): did not decrease
- reduction of bcl-x mRNA levels (human bcl-x mRNA; 25 nM (lowest dose tested)): approximately 70%
- inhibition of bcl-x mRNA (human bcl-x mRNA; 50 nM to 200 nM): greater than 90%
- bcl-x mRNA at the highest dose (human bcl-x mRNA; 200 nM): nearly complete ablation
- IC50 (human bcl-x mRNA; dose-response, Northern blot): < 25 nM
